The conditions of data set [1]: Nature reviews, 4, 967-975, 2005; cited from earlier work.
The conditions of data set [2]: Nature reviews, 4, 967-975, 2005; cited from earlier work. This is another data set of the same source.
A further data set concerns schizophrenics. The note with it: cited from earlier work.
Another data set addresses T1, human NK3 receptor (Homo sapiens, UniProt P29371).
T1 construct: expressed in transfected cells
T1 sequence (P29371 1-465): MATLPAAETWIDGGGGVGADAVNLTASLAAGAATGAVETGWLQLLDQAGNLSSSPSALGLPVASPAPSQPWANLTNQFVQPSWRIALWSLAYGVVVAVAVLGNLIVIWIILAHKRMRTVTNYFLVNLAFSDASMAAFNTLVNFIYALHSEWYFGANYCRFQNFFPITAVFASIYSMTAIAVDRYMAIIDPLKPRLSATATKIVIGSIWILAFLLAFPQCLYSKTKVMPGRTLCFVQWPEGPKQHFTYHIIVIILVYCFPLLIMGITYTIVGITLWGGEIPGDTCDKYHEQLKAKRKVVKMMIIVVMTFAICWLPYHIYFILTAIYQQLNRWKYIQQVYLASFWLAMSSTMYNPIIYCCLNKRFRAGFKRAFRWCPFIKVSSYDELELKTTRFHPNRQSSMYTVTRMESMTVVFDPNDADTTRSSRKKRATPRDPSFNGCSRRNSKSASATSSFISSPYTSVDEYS
Nature of the data set: NK3 receptor binding assay (SPA-based competition binding, 125I-NKB). The note with it: read-out: Affinity (Ki/nM). Here is the method:
Membranepreparation: BHK cells stably expressing the human NK3 receptor were seeded in harvesting plates in Dulbeccos MEM containing GlutaMax (862 mg/l), 1 mM sodium pyruvate, 10% fetal calf serum, 1% Pen/Strep, 1 mg/ml G418 and were grown at 34° C. in a humidified atmosphere containing 10% CO2. To increase receptor expression, 10 μM trichotatin A was added to the media 24 hours before harvest of the cells at a confluency of app 90%. Prior to the harvesting, the cells were washed twice with PBS without Mg^2+ og Ca^2+ and subsequently scrapped of in 10 ml PBS pr harvesting plate. The cell suspension were centrifuged at 1500×G in three minutes before resuspension in 15 mM Tris-HCl pH 7.5 buffer containing 2 mM MgCl2; 0.3 mM EDTA and 1 mM EGTA (buffer A). The cell suspension was homogenised and subsequently centrifuged at 40000×G in 30 minutes. The membrane-pellet was resuspended in buffer A containing 250 mM sucrose, aliquoted and stored at −80° C.
Affinity assay description: The assay was performed as a SPA-based competition-binding assay in a 50 mM Tris pH 7.4 assay buffer containing 120 mM NaCl, 3 mM MnCl2, 40 μg/ml bacitracin, 2 μg/ml Chymostatin, 1 μg/ml Phosphoramidon and 4 μg/ml Leupeptin. […] The assay plate was subsequently under agitation incubated for 90 min at RT. The plate was centrifugated 10 minutes at 500×G and counted in a topcounter 5 minutes pr well.

`CC(=O)N(C)C1(c2ccccc2)CCN(CCC[C@]2(c3ccc(Cl)c(Cl)c3)CCCN(C(=O)c3ccccc3)C2)CC1` [Osanetant, osanetant]: in data set [1], the solubility entry was “poor”. Also, in data set [2], the bioavailability result is given as “poor”, the blood-brain barrier penetration result is reported as “poor” and the clearance result is “relatively high”. Moreover, in the data set on schizophrenics (Am. J. Psychiatry, 161, 2004, 975-984), the “effect versus placebo in clinical trials, in particular on positive symptoms of psychosis” value is “superior to placebo”.
Regarding `Cc1cc(Cn2c(C)c(C(=O)N[C@H](c3cccc(F)c3)C3CCC3)c3cccc(F)c3c2=O)[nH]n1` [Example 2p, 8-Fluoro-3-methyl-2-(5-methyl-2H-pyrazol-3-ylmethyl)-1-oxo-1,2-dihydro-isoquinoline-4-carboxylic acid [(S)-cyclobutyl-(3-fluoro-phenyl)-methyl]-amide], the Ki on human NK3 receptor turned out to be 28 nM.
In the case of `Cc1c(C(=O)N[C@H](c2cccc(F)c2)C2CC2)c2cccc(F)c2c(=O)n1Cc1cc(F)ccc1F` [Example 2d, 2-(2,5-Difluoro-benzyl)-8-fluoro-3-methyl-1-oxo-1,2-dihydro-isoquinoline-4-carboxylic acid [(S)-cyclopropyl-(3-fluoro-phenyl)-methyl]-amide], the Ki on human NK3 receptor turned out to be 180 nM.
With `Cc1c(C(=O)N[C@H](c2cccc(F)c2)C2CC2)c2cccc(F)c2c(=O)n1Cc1cccnc1` [Example 2b, 8-Fluoro-3-methyl-1-oxo-2-pyridin-3-ylmethyl-1,2-dihydro-isoquinoline-4-carboxylic acid [(S)-cyclopropyl-(3-fluoro-phenyl)-methyl]-amide], at human NK3 receptor, the Ki was 350 nM.
Same read-out and setting: the figure for `CCn1ccnc1Cn1c(C)c(C(=O)N[C@H](c2cccc(F)c2)C2CCC2)c2cccc(F)c2c1=O` [Example 2ah, 2-(1-Ethyl-1H-imidazol-2-ylmethyl)-8-fluoro-3-methyl-1-oxo-1,2-dihydro-isoquinoline-4-carboxylic acid [(S)-cyclobutyl-(3-fluoro-phenyl)-methyl]-amide] is 43 nM; for `Cc1c(C(=O)N[C@H](c2ccc(F)c(F)c2)C2CCC2)c2cccc(F)c2c(=O)n1Cc1ncco1` [Example 4b, 8-Fluoro-3-methyl-2-oxazol-2-ylmethyl-1-oxo-1,2-dihydro-isoquinoline-4-carboxylic acid [(S)-cyclobutyl-(3,4-difluoro-phenyl)-methyl]-amide] it is 4 nM; for `Cc1cc(Cn2c(C)c(C(=O)N[C@H](c3cccc(F)c3)C3CCC3)c3cccc(F)c3c2=O)no1` [Example 2m, 8-Fluoro-3-methyl-2-(5-methyl-isoxazol-3-ylmethyl)-1-oxo-1,2-dihydro-isoquinoline-4-carboxylic acid [(S)-cyclobutyl-(3-fluoro-phenyl)-methyl]-amide] it is 33 nM.
On the same count and under the same terms, the figure for `Cc1c(C(=O)N[C@H](c2cccc(F)c2)C2CC2)c2cccc(F)c2c(=O)n1Cc1ccoc1` [Example 2a, 8-Fluoro-2-furan-3-ylmethyl-3-methyl-1-oxo-1,2-dihydro-isoquinoline-4-carboxylic acid [(S)-cyclopropyl-(3-fluoro-phenyl)-methyl]-amide] is 28 nM.
Same read-out and setting: the figure for `CC[C@H](NC(=O)c1c(C)n(Nc2ccccc2)c(=O)c2ccccc12)c1ccccc1` [Example 1a, 3-Methyl-1-oxo-2-phenylamino-1,2-dihydro-isoquinoline-4-carboxylic acid ((S)-1-phenyl-propyl)-amide] is 200 nM; for `Cc1nnc(Cn2c(C)c(C(=O)N[C@H](c3cccc(F)c3)C3CCC3)c3cccc(F)c3c2=O)[nH]1` [Example 2o, 8-Fluoro-3-methyl-2-(5-methyl-4H-[1,2,4]triazol-3-ylmethyl)-1-oxo-1,2-dihydro-isoquinoline-4-carboxylic acid [(S)-cyclobutyl-(3-fluoro-phenyl)-methyl]-amide] it is 120 nM; for `Cc1c(C(=O)N[C@H](c2cccc(F)c2)C2CCC2)c2cccc(F)c2c(=O)n1Cc1cocn1` [Example 2t, 8-Fluoro-3-methyl-2-oxazol-4-ylmethyl-1-oxo-1,2-dihydro-isoquinoline-4-carboxylic acid [(S)-cyclobutyl-(3-fluoro-phenyl)-methyl]-amide] it is 12 nM.
Consider `Cc1nonc1Cn1c(C)c(C(=O)N[C@H](c2cccc(F)c2)C2CCC2)c2cccc(F)c2c1=O` [Example 2v, 8-Fluoro-3-methyl-2-(4-methyl-furazan-3-ylmethyl)-1-oxo-1,2-dihydro-isoquinoline-4-carboxylic acid [(S)-cyclobutyl-(3-fluoro-phenyl)-methyl]-amide], for which the Ki on human NK3 receptor was found to be 6.6 nM.
Regarding `Cc1c(C(=O)N[C@H](c2cccc(F)c2)C2CC2)c2cccc(F)c2c(=O)n1Cc1ccsc1` [Example 2g, 8-Fluoro-3-methyl-1-oxo-2-thiophen-3-ylmethyl-1,2-dihydro-isoquinoline-4-carboxylic acid [(S)-cyclopropyl-(3-fluoro-phenyl)-methyl]-amide], the Ki on human NK3 receptor was found to be 7.8 nM.
As to `CC[C@H](NC(=O)c1c(O)c(-c2ccccc2)nc2ccccc12)c1ccccc1` [talnetant], in data set [1], the solubility entry was “poor”. Also, in data set [2], the bioavailability result was “poor”, the blood-brain barrier penetration entry was “poor” and the clearance result is “relatively high”. Also, the “effect on cognitive behaviour of schizophrenics in clinical trials” value in the data set on schizophrenics (Curr. Opion. Invest. Drug, 6, 717-721, 2005) is “ameliorate”.
With `Cc1nc(Cn2c(C)c(C(=O)N[C@H](c3cccc(F)c3)C3CCC3)c3cccc(F)c3c2=O)cs1` [Example 2ac, 8-Fluoro-3-methyl-2-(2-methyl-thiazol-4-ylmethyl)-1-oxo-1,2-dihydro-isoquinoline-4-carboxylic acid [(S)-cyclobutyl-(3-fluoro-phenyl)-methyl]-amide], on human NK3 receptor, the Ki is 95 nM.

These data come from patent US8415373B2, “Isoquinolinone derivatives as NK3 antagonists” (H. Lundbeck A/S, priority 2008, dated 2013).
